Key:
[1] = system: CDK8 (phosphorylation of STAT1 at serine 727 in A549 cells); experiment: Cell based Phospho-STAT1 assay (IFNγ-stimulated A549 cells, AlphaLISA); details: Homo sapiens, A549, A549 cells, phospho-STAT1 after IFNγ stimulation
In short: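 A549 cells given serial compound dilutions for 1 h at 37 °C, then stimulated with IFNγ at 10 ng/mL final for 30 min. Lysate STAT1 Ser727 phosphorylation measured by AlphaLISA; % inhibition vs stimulated/unstimulated DMSO controls, IC50 by nonlinear regression.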

[2] = system: CDK8 (TCF/LEF luciferase reporter in HCT116 cells); experiment: Cell based TCF/LEF reporter assay (HCT116+TCF/LEF luciferase); details: Homo sapiens, HCT-116, 24 h
Description: Determine Inhibitor Activity Against CDK8 in Cell Based TCF/LEF Reporter Assay
The colorectal carcinoma cell line HCT116 was stably transduced with lentivirus encoding the TCF/LEF promoter upstream of a luciferase reporter gene (Qiagen) and single cell clones expressing this construct (referred to as HCT116+TCF/LEF) were isolated. HCT116 express endogenous mutant β-catenin^3, resulting in up-regulation of transcription through the TCF/LEF promoter. Expression of the TCF/LEF reporter construct in HCT116 results in constitutive expression of luciferase. Treatment of the cells with inhibitors of components of the β-catenin signaling pathway (such as CDK8) results in decreased expression of luciferase. The assay is performed as follows. The HCT116+TCF/LEF cell line is seeded in a 96 well plate in 50 μL of culture media at 1×10^4 cells/well and incubated at 37° C. overnight. Serial dilutions of compounds (in total volume of 50 μL culture media) are added to the cells and incubated at 37° C. for 24 hours. 4 wells of DMSO treated cells serve as high controls and cells treated with 10 uM of the reference compound CCT251545 (a known CDK8 inhibitor)^4 serve as low controls. The viability of the cells is assayed by the addition of […] reagent (Promega) followed by 30 minute incubation at 37° C. and quantification of the fluorescent signal (Ex400/Em505). The luciferase expression is then assayed by the addition of 25 μL ONE-Glo reagent (Promega) followed by 10 minute incubation at room temperature and quantification of the luminescence signal. The luminescence signal is normalized to the fluorescence signal to correct for any loss in cell viability over the 24 hour compound incubation period. The percentage inhibition at individual concentrations relative to high and low controls is calculated. The data are analyzed by using nonlinear regression to generate IC50 values.

Row | IC50 [1] [nM] | IC50 [2] [nM] | Structure (SMILES)
1 | 100 to 1000 | 100 to 1000 | Cc1cc(C)n(-c2ccc(-c3cnn4cccc(N5CCC(C#N)CC5)c34)cc2)n1 [Compound P-0253, 1-(3-(4-(3,5-dimethyl-1H-pyrazol-1-yl)phenyl)pyrazolo[1,5-a]pyridin-4-yl)piperidine-4-carbonitrile]
2 | 0.1 to 100 | 0.1 to 100 | NC(=O)C1CCC(c2cccn3ncc(-c4ccc(-c5cnn(C(F)F)c5)cc4)c23)CC1 (stereo not drawn) [Compound P-0316, 4-(3-(4-(1-(difluoromethyl)-1H-pyrazol-4-yl)phenyl)pyrazolo[1,5-a]pyridin-4-yl)cyclohexane-1-carboxamide]
3 | 0.1 to 100 | 0.1 to 100 | CC(C)(C#Cc1nccn2ncc(-c3ccc(-c4cnn(CCCC#N)c4)cc3)c12)C(N)=O [Compound P-0456, 4-(3-(4-(1-(3-cyanopropyl)-1H-pyrazol-4-yl)phenyl)pyrazolo[1,5-a]pyrazin-4-yl)-2,2-dimethylbut-3-ynamide]
4 | 100 to 1000 | 100 to 1000 | N#CC1CCN(c2cccn3ncc(-c4ccc(C(=O)N5CCOCC5)cc4)c23)CC1 [Compound P-0258, 1-(3-(4-(morpholine-4-carbonyl)phenyl)pyrazolo[1,5-a]pyridin-4-yl)piperidine-4-carbonitrile]
5 | 1000 to 10000 | 1000 to 10000 | O=C(O)C1CC=C(c2cccn3ncc(-c4ccc(-n5cccn5)cc4)c23)CC1 (stereo not drawn) [Compound P-0213, 4-(3-(4-(1H-pyrazol-1-yl)phenyl)pyrazolo[1,5-a]pyridin-4-yl)cyclohex-3-ene-1-carboxylic acid]
6 | 0.1 to 100 | 0.1 to 100 | N#CC1CCN(c2cccn3ncc(-c4ccc(OCCN5CCOCC5)cc4)c23)CC1 [Compound P-0261, 1-(3-(4-(2-morpholino-ethoxy)phenyl)pyrazolo[1,5-a]pyridin-4-yl)piperidine-4-carbonitrile]
7 | 100 to 1000 | 100 to 1000 | Cn1cc(-c2ccc(-c3cnc4[nH]ccc4c3N3CCC4(CCNC4=O)CC3)cc2)cn1 [Compound P-0271, 8-(5-(4-(1-methyl-1H-pyrazol-4-yl)phenyl)-1H-pyrrolo[2,3-b]pyridin-4-yl)-2,8-diazaspiro[4.5]decan-1-one]
8 | 0.1 to 100 | 0.1 to 100 | Cn1ncc2cc(-c3cnn4ccnc(C5=CCC(C#N)CC5)c34)ccc21 (stereo not drawn) [Compound P-0324, 4-(3-(1-methyl-1H-indazol-5-yl)pyrazolo[1,5-a]pyrazin-4-yl)cyclohex-3-ene-1-carbonitrile]
9 | 100 to 1000 | 100 to 1000 | COc1ccc2cc(-c3cnn4cccc(C#CC(C)(C)O)c34)ccc2n1 [Compound P-0282, 4-(3-(2-methoxyquinolin-6-yl)pyrazolo[1,5-a]pyridin-4-yl)-2-methylbut-3-yn-2-ol]

Second part, the molecule before the results:

Row | Structure (SMILES) | IC50 [1] [nM] | IC50 [2] [nM]
10 | N#CC1CC=C(c2nccn3ncc(-c4cnn(-c5ccc(F)cc5)c4)c23)CC1 (stereo not drawn) [Compound P-0103, 4-(3-(1-(4-fluorophenyl)-1H-pyrazol-4-yl)pyrazolo[1,5-a]pyrazin-4-yl)cyclohex-3-ene-1-carbonitrile] | 0.1 to 100 | 100 to 1000
11 | Cc1cc(-c2cnn3ccnc(C4CCC(C#N)CC4)c23)ccc1-c1cnn(CC(C)(C)O)c1 (stereo not drawn) [Compound P-0025, (1s,4s)-4-(3-(4-(1-(2-hydroxy-2-methylpropyl)-1H-pyrazol-4-yl)-3-methylphenyl)pyrazolo[1,5-a]pyrazin-4-yl)cyclohexane-1-carbonitrile] | 0.1 to 100 | 0.1 to 100
12 | CC(=O)Nc1cc(-c2cnn3ccnc(C4=CCC(C#N)CC4)c23)ccn1 (stereo not drawn) [Compound P-0080, N-(4-(4-(4-cyanocyclohex-1-ene-1-yl)pyrazolo[1,5-a]pyrazin-3-yl)pyridin-2-yl)acetamide] | 0.1 to 100 | 0.1 to 100
13 | N#CC1C2CCC1CN(c1cccn3ncc(-c4ccc(Cl)cc4)c13)C2 (stereo not drawn) [Compound P-0161, 3-(3-(4-chlorophenyl)pyrazolo[1,5-a]pyridin-4-yl)-3-azabicyclo[3.2.1]octane-8-carbonitrile] | 1000 to 10000 | 1000 to 10000
14 | COc1ccc2cc(-c3cnn4ccnc(C#CC(C)(C)C(N)=O)c34)ccc2n1 [Compound P-0117, 4-[3-(2-methoxy-6-quinolyl)pyrazolo[1,5-a]pyrazin-4-yl]-2,2-dimethyl-but-3-ynamide] | 0.1 to 100 | 0.1 to 100
15 | CCCS(=O)(=O)Nc1ccc2cc(-c3cnn4ccnc(C5=CCC(C#N)CC5)c34)ccc2n1 (stereo not drawn) [Compound P-0094, N-(6-(4-(4-cyanocyclohex-1-en-1-yl)pyrazolo[1,5-a]pyrazin-3-yl)quinolin-2-yl)propane-1-sulfonamide] | 0.1 to 100 | 0.1 to 100
16 | N#CC1CCC(c2nccn3ncc(-c4ccc(-c5cnn(CC6CCC6)c5)cc4)c23)CC1 (stereo not drawn) [Compound P-0022, (1s,4s)-4-(3-(4-(1-(cyclobutylmethyl)-1H-pyrazol-4-yl)phenyl)pyrazolo[1,5-a]pyrazin-4-yl)cyclohexane-1-carbonitrile] | 0.1 to 100 | 0.1 to 100
17 | N#CC1CC=C(c2nccn3ncc(-c4ccc(OCC5CC5)c(Cl)c4)c23)CC1 (stereo not drawn) [Compound P-0038, 4-(3-(3-chloro-4-(cyclopropyl-methoxy)phenyl)pyrazolo[1,5-a]pyrazin-4-yl)cyclohex-3-ene-1-carbonitrile] | 0.1 to 100 | 0.1 to 100
18 | N#CC1CCC(c2cccn3ncc(-c4ccc(NCCN5CCOCC5)nc4)c23)CC1 (stereo not drawn) [Compound P-0138, 4-(3-(6-((2-morpholinoethyl)amino)pyridin-3-yl)pyrazolo[1,5-a]pyridin-4-yl)cyclohexane-1-carbonitrile] | 0.1 to 100 | 0.1 to 100
19 | Cc1ccc2cc(-c3cnc4[nH]ccc4c3C3=CCC(C#N)CC3)ccc2n1 (stereo not drawn) [Compound P-0202, 4-(5-(2-methylquinolin-6-yl)-1H-pyrrolo[2,3-b]pyridin-4-yl)cyclohex-3-ene-1-carbonitrile] | 0.1 to 100 | 0.1 to 100
20 | N#CC1CC=C(c2nccn3ncc(-c4ccc5[nH]ncc5c4)c23)CC1 (stereo not drawn) [Compound P-0070, 4-(3-(1H-indazol-5-yl)pyrazolo[1,5-a]pyrazin-4-yl)cyclohex-3-ene-1-carbonitrile] | 0.1 to 100 | 0.1 to 100
21 | CC(C)Cn1cc(-c2ccc(-c3cnn4ccnc(C5=CCC(C#N)CC5)c34)cc2)cn1 (stereo not drawn) [Compound P-0035, 4-(3-(4-(1-isobutyl-1H-pyrazol-4-yl)phenyl)pyrazolo[1,5-a]pyrazin-4-yl)cyclohex-3-ene-1-carbonitrile] | 0.1 to 100 | 0.1 to 100
22 | Cn1cc(-c2ccc(-c3cnn4cccc(N5CC6CCC(C5)C6C#N)c34)cc2)cn1 (stereo not drawn) [Compound P-0159, 3-(3-(4-(1-methyl-1H-pyrazol-4-yl)phenyl)pyrazolo[1,5-a]pyridin-4-yl)-3-azabicyclo[3.2.1]octane-8-carbonitrile] | 100 to 1000 | 100 to 1000
23 | COc1ccc2ccc(-c3cnn4ccnc(C5=CCC(C#N)CC5)c34)cc2n1 (stereo not drawn) [Compound P-0165, 4-(3-(2-methoxyquinolin-7-yl)pyrazolo[1,5-a]pyrazin-4-yl)cyclohex-3-ene-1-carbonitrile] | 100 to 1000 | 1000 to 10000
24 | N#CC1CC=C(c2nccn3ncc(-c4ccc(-c5cn[nH]c5)cc4)c23)CC1 (stereo not drawn) [Compound P-0008, 4-(3-(4-(1H-pyrazol-4-yl)phenyl)pyrazolo[1,5-a]pyrazin-4-yl)cyclohex-3-ene-1-carbonitrile] | 0.1 to 100 | 0.1 to 100
